Assay results published in US8802634B2, “CD40-L Inhibitory Peptides” (Phylogica Limited, priority 2008, dated 2014).
Read-outs that look alike come from different tables or passages of the source. Where a SMILES comes first, the peptide text is derived from it. Bridges are numbered along the chain shown (N, C = ends). Roman numbers before positions name the chains, in order. Where no end group is shown, it is not given here. [ ]: non-standard residue; d: D form. AEEA = NCCOCCOCC(=O)O

What was measured:
[1] = biological target: CD40L-induced CD86 expression on primary B-cells (Homo sapiens, UniProt P29965); assay: Inhibition of CD40L-induced CD86 expression on primary B-cells (FACS); assay type: cell-based; settings: for inhibition of CD40L-induced CD86 expression (qualitative): figure legends
CD40L-induced CD86 expression on primary B-cells, sequence (P29965 whole entry): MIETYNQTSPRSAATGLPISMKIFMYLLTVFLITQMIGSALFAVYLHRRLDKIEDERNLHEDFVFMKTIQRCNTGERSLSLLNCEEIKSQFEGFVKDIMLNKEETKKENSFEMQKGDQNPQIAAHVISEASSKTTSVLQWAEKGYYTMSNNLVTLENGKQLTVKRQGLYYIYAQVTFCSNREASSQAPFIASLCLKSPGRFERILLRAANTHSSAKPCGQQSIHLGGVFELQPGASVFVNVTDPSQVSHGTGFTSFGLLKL
CD40L-induced CD86 expression on primary B-cells, sequence (P25942 21-277 partner): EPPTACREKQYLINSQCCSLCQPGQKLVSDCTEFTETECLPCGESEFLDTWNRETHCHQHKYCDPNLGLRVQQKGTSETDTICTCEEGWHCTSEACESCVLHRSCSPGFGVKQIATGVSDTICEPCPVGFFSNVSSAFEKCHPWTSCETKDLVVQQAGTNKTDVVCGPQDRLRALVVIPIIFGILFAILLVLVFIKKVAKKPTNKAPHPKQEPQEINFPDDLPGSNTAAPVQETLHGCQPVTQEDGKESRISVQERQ
Method: In one example, the ability of a peptide, analog or derivative of the invention to inhibit or reduce or delay expression of CD86 on primary B-cells was determined in the presence and absence of the peptides, analogs and derivatives of the invention. In particular, CD86 expression was determined by FACS.
In these assays, CD40L induced CD86 expression in a concentration-dependent manner in the absence of a peptidyl inhibitor of the present invention with an EC50 value of about 9 nM (FIG. 6d, 6e). As a control in these assays, LPS-induced expression of CD86 mediated by the Toll-like receptors TLR 2/4, and TNFα-induced cytoxicity, were also assayed to exclude effects mediated by ligands other than CD40L.
In a similar series of bioassays, dimeric forms of the CD40L peptide inhibitors were also tested for their ability to inhibit or reduce CD40L-induced expression of CD86 on primary B-cells.

CD40L/CD40-Fc = biological target: T1, CD40L/CD40-Fc (Homo sapiens, UniProt P29965); assay: Chemiluminescent proximity assay (Alphascreen) of CD40L-CD40 interaction; assay type: binding
T1 sequence (P29965 113-261 limits assumed): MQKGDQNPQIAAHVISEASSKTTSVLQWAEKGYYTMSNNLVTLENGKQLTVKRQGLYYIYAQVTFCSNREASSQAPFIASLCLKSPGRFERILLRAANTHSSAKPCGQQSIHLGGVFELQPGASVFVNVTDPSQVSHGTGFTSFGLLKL
Method: In one example, the Alphascreen assay (PerkinElmer) was employed according to the manufacturer's instructions.
Homodimers and heterodimers were also assayed by chemiluminescent proximity assay for their ability to inhibit CD40L-CD40 interaction.

[2] = PEGylated monomeric peptide, read-out: EC50 PEGylated peptide

For CC[C@H](C)[C@H](NC(=O)[C@H](CO)NC(=O)[C@H](Cc1ccccc1)NC(=O)[C@@H]1CCCN1C(=O)[C@@H]1CCCN1C(=O)[C@H](CO)NC(=O)[C@H](Cc1ccccc1)NC(=O)[C@H](Cc1ccccc1)NC(=O)[C@H](Cc1ccccc1)NC(=O)[C@H](CC(C)C)NC(=O)[C@H](CC(C)C)NC(=O)[C@@H](N)CC(C)C)C(=O)N[C@@H](Cc1ccccc1)C(=O)N[C@@H](CO)C(=O)N[C@@H](Cc1ccccc1)C(=O)N[C@@H](CO)C(=O)N[C@@H](CC(C)C)C(=O)N[C@H](C(=O)N[C@H](C(=O)N[C@@H](CC(C)C)C(=O)N[C@@H](CO)C(=O)O)[C@@H](C)O)[C@@H](C)O [Peptide M7_189S] (H-LLLFFFSPPFSIFSFSLTTLS-OH), the EC50 ([1]; monomeric and dimeric peptides, Table 7, read-out: EC50) was 176 nM and the EC50 (CD40L/CD40-Fc; monomeric and dimeric peptides, Table 5, read-out: EC50) was 177 nM.

In the case of “I: H-C[AEEA]LLLFFFSPPFSIFSFSLTTLS / II: H-C[AEEA]HPFSIKNVFSIWNFFSVY (disulfide I:1-II:1) [Cys_M1_6S-Cys_M1_189S heterodimer]”, the “inhibition of CD40L-induced CD86 expression (qualitative)” value (shortened to “inhibition … (qualitative)”) [1] is reported as “enhanced inhibition” and the “inhibition of CD40L-CD40 interaction relative to monomeric peptide controls” value (CD40L/CD40-Fc; qualitative) is reported as “enhanced inhibition”.

Molecule CC[C@H](C)[C@H](NC(=O)[C@H](CC(C)C)NC(=O)[C@H](CCC(N)=O)NC(=O)[C@H](Cc1ccccc1)NC(=O)[C@H](Cc1ccc(O)cc1)NC(=O)[C@H](Cc1ccc(O)cc1)NC(=O)[C@H](CCCCN)NC(=O)[C@H](Cc1ccccc1)NC(=O)[C@H](CCCNC(=N)N)NC(=O)[C@H](CO)NC(=O)[C@H](Cc1ccc(O)cc1)NC(=O)[C@H](CCCNC(=N)N)NC(=O)[C@H](Cc1c[nH]c2ccccc12)NC(=O)[C@H](Cc1c[nH]cn1)NC(=O)[C@H](Cc1ccc(O)cc1)NC(=O)[C@H](CCC(N)=O)NC(=O)[C@@H](NC(=O)[C@@H](N)CO)[C@@H](C)CC)C(=O)N[C@@H](Cc1c[nH]c2ccccc12)C(=O)N[C@H](C(=O)N[C@@H](Cc1ccc(O)cc1)C(=O)N[C@@H](Cc1ccc(O)cc1)C(=O)N[C@@H](CO)C(=O)N[C@@H](Cc1c[nH]cn1)C(=O)N[C@H](C(=O)O)C(C)C)C(C)C [CD40L M1_82s] (H-SIQYHWRYSRFKYYFQLIWVYYSHV-OH; N-terminus and C-terminus assumed) has an EC50 (CD40L/CD40-Fc; PEGylated Cys-Ser derivative, read-out: EC50(PEGylated) CD40L/CD40-Fc/BAF617) of 120 nM.

In the case of CC[C@H](C)[C@H](NC(=O)CNC(=O)CNC(=O)[C@H](CCCNC(=N)N)NC(=O)[C@H](CCC(N)=O)NC(=O)[C@@H](NC(=O)CNC(=O)[C@H](CO)NC(=O)[C@@H]1CCCN1C(=O)[C@@H](NC(=O)[C@H](Cc1ccccc1)NC(=O)[C@H](CC(C)C)NC(=O)[C@H](CO)NC(=O)[C@H](Cc1ccc(O)cc1)NC(=O)[C@H](Cc1ccccc1)NC(=O)[C@H](CCCNC(=N)N)NC(=O)[C@H](CC(N)=O)NC(=O)[C@H](CCCNC(=N)N)NC(=O)[C@@H](NC(=O)[C@H](Cc1c[nH]c2ccccc12)NC(=O)[C@H](CCCNC(=N)N)NC(=O)[C@@H]1CCCN1)C(C)C)C(C)C)C(C)C)C(=O)N[C@@H](Cc1c[nH]cn1)C(=O)N[C@@H](CC(C)C)C(=O)N[C@@H](Cc1c[nH]c2ccccc12)C(=O)N[C@@H](Cc1ccccc1)C(=O)N[C@@H](CO)C(=O)N[C@@H](CC(N)=O)C(=O)N[C@@H](Cc1c[nH]c2ccccc12)C(=O)N[C@H](C(=O)N[C@@H](CCCNC(=N)N)C(=O)O)C(C)C [CD40L M1_50s] (H-PRWVRNRFYSLFVPSGVQRGGIHLWFSNWVR-OH; N-terminus and C-terminus assumed), the EC50 [1, 2] is reported as 30 nM.

For CC[C@H](C)[C@H](NC(=O)[C@H](CCC(N)=O)NC(=O)[C@H](Cc1ccccc1)NC(=O)[C@H](Cc1ccccc1)NC(=O)[C@H](CCC(=O)O)NC(=O)[C@H](CCCNC(=N)N)NC(=O)CNC(=O)[C@H](C)NC(=O)[C@H](C)NC(=O)[C@@H](N)CC(=O)O)C(=O)N[C@@H](C)C(=O)NCC(=O)N[C@@H](CC(C)C)C(=O)N[C@@H](Cc1ccccc1)C(=O)N[C@@H](CO)C(=O)N[C@@H](Cc1ccccc1)C(=O)N[C@@H](CCCNC(=N)N)C(=O)N[C@@H](Cc1c[nH]cn1)C(=O)N[C@@H](Cc1c[nH]cn1)C(=O)N[C@@H](Cc1c[nH]c2ccccc12)C(=O)N[C@@H](Cc1c[nH]c2ccccc12)C(=O)N[C@@H](CCC(N)=O)C(=O)N[C@@H](C)C(=O)O [CD40L M1_30s] (H-DAAGREFFQIAGLFSFRHHWWQA-OH; N-terminus and C-terminus assumed), the EC50 [1, 2] was > 2000 nM.

For CC[C@H](C)[C@H](NC(=O)[C@@H](NC(=O)[C@H](CCCCN)NC(=O)[C@@H](NC(=O)[C@H](Cc1ccc(O)cc1)NC(=O)[C@H](CC(C)C)NC(=O)[C@@H](N)CC(C)C)C(C)C)C(C)C)C(=O)N[C@@H](CS)C(=O)N[C@@H](Cc1ccccc1)C(=O)N[C@@H](Cc1ccccc1)C(=O)N[C@@H](CS)C(=O)N[C@@H](CCSC)C(=O)N[C@@H](CC(C)C)C(=O)N[C@H](C(=O)N[C@@H](CCC(N)=O)C(=O)N[C@@H](Cc1ccc(O)cc1)C(=O)N[C@@H](CC(N)=O)C(=O)N[C@@H](CC(N)=O)C(=O)N[C@@H](Cc1ccccc1)C(=O)N[C@@H](CCC(N)=O)C(=O)N[C@H](C(=O)N[C@@H](Cc1ccc(O)cc1)C(=O)N[C@@H](CCCCN)C(=O)O)[C@@H](C)O)C(C)C [CD40L M2_159] (H-LLYVKVICFFCMLVQYNNFQTYK-OH; N-terminus and C-terminus assumed), the EC50 (CD40L/CD40-Fc; unmodified (non-PEGylated) monomeric base peptide; read-out: EC50nmodified) CD40L/CD40-Fc/BAF617) was 120 nM.

With CC[C@H](C)[C@H](NC(=O)[C@H](CO)NC(=O)[C@H](Cc1c[nH]c2ccccc12)NC(=O)[C@H](CCC(N)=O)NC(=O)[C@@H](NC(=O)[C@@H]1CCCN1C(=O)[C@H](Cc1ccccc1)NC(=O)[C@H](Cc1ccccc1)NC(=O)[C@H](Cc1c[nH]c2ccccc12)NC(=O)CNC(=O)[C@H](Cc1ccc(O)cc1)NC(=O)[C@H](CCCCN)NC(=O)[C@H](CC(C)C)NC(=O)[C@@H](NC(=O)[C@H](Cc1c[nH]cn1)NC(=O)[C@H](CO)NC(=O)[C@H](CCCNC(=N)N)NC(=O)[C@H](Cc1ccc(O)cc1)NC(=O)[C@@H]1CCCN1C(=O)[C@@H](NC(=O)[C@H](Cc1ccccc1)NC(=O)[C@@H]1CCCN1C(=O)[C@@H](N)CC(C)C)C(C)C)C(C)C)C(C)C)C(=O)N[C@@H](Cc1ccccc1)C(=O)N[C@@H](C)C(=O)N[C@H](C(=O)N[C@@H](CC(C)C)C(=O)N1CCC[C@H]1C(=O)N[C@@H](Cc1ccccc1)C(=O)N[C@@H](CCC(N)=O)C(=O)N[C@@H](Cc1ccc(O)cc1)C(=O)N[C@@H](CC(C)C)C(=O)N[C@@H](Cc1c[nH]cn1)C(=O)N[C@@H](CCCNC(=N)N)C(=O)N[C@@H](CS)C(=O)N[C@@H](CCCNC(=N)N)C(=O)O)C(C)C [CD40L M1_18] (H-LPFVPYRSHVLKYGWFFPVQWSIFAVLPFQYLHRCR-OH; N-terminus and C-terminus assumed) the “inhibition … (qualitative)” value [1] was “concentration-dependent inhibition” and the IC50 ([1]; monomeric peptide, concentration-dependent) was < 500 nM.

For CC[C@@H](C)[C@@H](NC(=O)[C@@H](Cc1ccccc1)NC(=O)[C@@H](C)NC(=O)[C@H](NC(=O)[C@@H](CC(C)C)NC(=O)[C@H]1CCCN1C(=O)[C@@H](Cc1ccccc1)NC(=O)[C@@H](CCC(N)=O)NC(=O)[C@@H](Cc1ccc(O)cc1)NC(=O)[C@@H](CC(C)C)NC(=O)[C@@H](Cc1c[nH]cn1)NC(=O)[C@@H](CCCNC(=N)N)NC(=O)[C@@H](CS)NC(=O)[C@H](N)CCCNC(=N)N)C(C)C)C(=O)N[C@H](CO)C(=O)N[C@H](Cc1c[nH]c2ccccc12)C(=O)N[C@H](CCC(N)=O)C(=O)N[C@@H](C(=O)N1CCC[C@@H]1C(=O)N[C@H](Cc1ccccc1)C(=O)N[C@H](Cc1ccccc1)C(=O)N[C@H](Cc1c[nH]c2ccccc12)C(=O)NCC(=O)N[C@H](Cc1ccc(O)cc1)C(=O)N[C@H](CCCCN)C(=O)N[C@H](CC(C)C)C(=O)N[C@@H](C(=O)N[C@H](Cc1c[nH]cn1)C(=O)N[C@H](CO)C(=O)N[C@H](CCCNC(=N)N)C(=O)N[C@H](Cc1ccc(O)cc1)C(=O)N1CCC[C@@H]1C(=O)N[C@@H](C(=O)N[C@H](Cc1ccccc1)C(=O)N1CCC[C@@H]1C(=O)N[C@H](CC(C)C)C(=O)O)C(C)C)C(C)C)C(C)C [CD40L M1_18rd] (H-[dR][dC][dR][dH][dL][dY][dQ][dF][dP][dL][dV][dA][dF][dI][dS][dW][dQ][dV][dP][dF][dF][dW]G[dY][dK][dL][dV][dH][dS][dR][dY][dP][dV][dF][dP][dL]-OH; N-terminus and C-terminus assumed), the “inhibition … (qualitative)” value [1] was “enhanced inhibition”.
